Holding throughout (type): biochemical
The target of assay [1] is T1, MMP-12 (macrophage metalloelastase) (Homo sapiens, UniProt P39900).
T1 construct: made in house
The experiment in a line: Determination of the inhibition constant (Ki) for MMP-12, fluorogenic substrate assay (cuvette or microtiter plate). The following applies: substrate Mca-Pro-Leu-Gly-Leu-Dpa-Ala-Arg-NH2, 25C, pH 7.6, [MMP-12] = 2 nM, cuvette or microtiter plate method. How it is done:
MMP-12 (EC 3.4.24.65) was cloned, expressed and purified according to Shapiro, S.D. et al., J Biol. Chem. 268, 23824-23829 (1993). […] Aliquots of MMP-12 were stored at -70C.
The potency of inhibitors of MMP-12 was measured using either quartz cuvettes or microtiter plates. The activity of MMP-12 was measured using a fluorogenic substrate, Mca-Pro-Leu-Gly-Leu-Dpa-Ala-Arg-NH2, Knight, C.G. et al., FEBS Lett. 296,263-266 (1992), at 25C in an assay buffer containing 50 mM Tris, pH 7.6, 0.2 M NaCl, 50 mM CaCl2, and 0.02% Brij-35. The increase in fluorescence due to cleavage of Gly-Leu peptide bond by MMP-12 was monitored with a Perkin-Elmer LS50B Fluorimeter (λex 328 nm, λem 393 nm, excitation slit 2.5, emission slit 10) for the cuvette assay and with a Molecular Devices Fmax fluorescence plate reader (λex 320 nm, λem 405 nm) for the microtiter plate assay. Substrate and inhibitor stock solutions were made in N,N,dimethylformamide (DMF) and 0.1% HCI-DMF, respectively. […]
Ki values were determined using the microtiter plate method in a manner similar to that described for the cuvette method with some modifications. […] Cleavage of substrate was recorded every 30 seconds for 30 minutes and progress curves were generated. […]

The next assay has as its target T2, MMP-3 (Homo sapiens, UniProt P08254).
T2 construct: The active MMP-3 was obtained by treatment of proMMP-3 with trypsin; endogenous in cells; host or cells: human rheumatoid synovial fibroblasts stimulated with macrophage-conditioned medium (secreted proenzyme purified from the culture medium)
The experiment in a line: Determination of Inhibition Constant (Ki) for MMP-3, fluorogenic substrate assay. The settings on record: activated MMP-3, substrate Mca-Pro-Leu-Gly-Leu-Dpa-Ala-Arg-NH2, 37°C, pH 7.6, [S] = 1 µM, [MMP-3] = 1 nM. Here is the method: ProMMP-3 (EC 3.4.24.17; Stromelysin-1) was purified from culture medium of human rheumatoid synovial fibroblasts stimulated with macrophage-conditioned medium according to Okada, Y. et al., J. Biol. Chem. 261, 14245-14255 (1986). The active MMP-3 was obtained by treatment of proMMP-3 with trypsin (5 µg/mL) at 37°C for 30 min, followed by addition of soybean trypsin inhibitor (50 µg/mL). Aliquots of the activated MMP-3 were stored at -20°C.
The activated MMP-3 is assayed using a fluorogenic substrate, Mca-Pro-Leu-Gly-Leu-Dpa-Ala-Arg-NH2, Knight, C.G. et al., FEBS Lett. 296, 263-266 (1992), at 37°C in an assay buffer containing 50 mM Tris, pH 7.6, 0.2 M NaCI, 50 mM CaCl2, and 0.02% Brij-35. The increase in fluorescence due to cleavage of Gly-Leu peptide bond by MMP-3 was monitored with Perkin-Elmer LS50B Fluorimeter (λex 328 nm, λem 393 nm, excitation slit 2.5, emission slit 10). Substrate and inhibitor stock solutions were made in DMF and 0.1% HCl-DMF, respectively. […] Under these conditions, the measured Ki, app is close to true Ki.
(§1) The Ki for a competitive inhibitor is calculated using: v0/vi = (1 + [I]/Ki, app) and Ki = Ki, app/(1 + [S]/Km), where v0 is the initial rate in the absence of inhibitor, vi is the initial rate in the presence of inhibitor at the concentration of [I], [S] is the substrate concentration, and Km is the Michaelis constant. […]

The target in a further assay is T3, MMP-2 (Homo sapiens, UniProt P08253).
T3 construct: made in house; host or cells: Pichia pastoris (strains KM71 / SMD1168, clone 24S)
T3 sequence (P08253 110-660): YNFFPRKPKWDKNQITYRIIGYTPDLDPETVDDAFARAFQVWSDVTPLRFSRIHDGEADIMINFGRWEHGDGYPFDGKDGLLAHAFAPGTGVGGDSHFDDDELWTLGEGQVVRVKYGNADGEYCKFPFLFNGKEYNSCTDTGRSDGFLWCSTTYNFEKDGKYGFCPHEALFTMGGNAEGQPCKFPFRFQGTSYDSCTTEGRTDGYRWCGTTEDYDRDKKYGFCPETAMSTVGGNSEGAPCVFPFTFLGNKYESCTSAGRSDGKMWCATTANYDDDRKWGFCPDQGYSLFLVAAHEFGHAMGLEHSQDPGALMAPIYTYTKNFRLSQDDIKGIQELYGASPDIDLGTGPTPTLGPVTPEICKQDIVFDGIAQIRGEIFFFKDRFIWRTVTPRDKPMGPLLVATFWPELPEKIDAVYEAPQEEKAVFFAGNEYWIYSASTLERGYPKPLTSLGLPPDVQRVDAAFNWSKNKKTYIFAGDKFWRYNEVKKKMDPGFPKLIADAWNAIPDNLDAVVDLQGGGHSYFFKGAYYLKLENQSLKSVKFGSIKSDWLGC
The assay can be described thus: Determination of Inhibition Constant (Ki) for MMP-2, fluorogenic substrate assay. The settings on record: recombinant MMP-2, substrate Mca-Pro-Leu-Gly-Leu-Dpa-Ala-Arg-NH2, 37°C, pH 7.6, [S] = 1 µM, [MMP-2] = 0.4 nM.
Description: Recombinant MMP-2 was purified from the fermentation broth of yeast Pichia pastoris that carries the integrated MMP-2 gene into its chromosome. In brief, the full-length cDNA for MMP-2 was obtained by reverse transcription of RNA from human melanoma A375M cell line by the reverse transcriptase polymerase chain reaction (RT-PCR) using sequence specific oligonucleotides. The nucleotide sequence was confirmed by Taq cycle sequencing. The cDNA was ligated into the Pichia pastoris expression vector pHIL-D2 in such a way that the expression of pro-MMP2 is under the control of the methano inducible alcohol oxidase promoter. The expression construct was digested with either SalI or NsiI and used to transform the Pichia pastoris strains KM71 and SMD1168. […]
The active MMP-2 was obtained by activation of proMMP-2 at 37°C for 1 h with 4-aminophenylmercuric acetate which was then removed by a Sephadex G-50 spin column. […] The increase in fluorescence is monitored (λex 328 nm, λem 393 nm). […] Under these conditions, the measured Ki, app is close to true Ki.
as §1

T1 sequence (P39900 106-263 limits assumed): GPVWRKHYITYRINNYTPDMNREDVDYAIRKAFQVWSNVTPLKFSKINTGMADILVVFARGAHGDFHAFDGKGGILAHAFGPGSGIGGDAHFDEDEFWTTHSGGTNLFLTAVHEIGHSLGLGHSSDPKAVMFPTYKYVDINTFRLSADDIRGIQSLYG
T2 sequence (P08254 100-477): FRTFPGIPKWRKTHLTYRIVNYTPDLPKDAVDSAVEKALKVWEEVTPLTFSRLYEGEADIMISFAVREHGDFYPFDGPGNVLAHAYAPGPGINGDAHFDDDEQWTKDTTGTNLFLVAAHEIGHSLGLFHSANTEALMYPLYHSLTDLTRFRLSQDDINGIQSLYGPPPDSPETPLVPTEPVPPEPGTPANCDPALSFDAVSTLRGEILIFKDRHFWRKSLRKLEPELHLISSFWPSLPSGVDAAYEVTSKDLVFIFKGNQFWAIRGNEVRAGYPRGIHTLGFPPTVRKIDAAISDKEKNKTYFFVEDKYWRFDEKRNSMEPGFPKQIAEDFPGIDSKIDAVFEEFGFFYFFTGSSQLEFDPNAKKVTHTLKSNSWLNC

By Ki is commonly meant the dissociation constant of the complex between target and ligand, obtained from inhibition or displacement. For the compound `CNC(=O)C(Cc1ccccc1)N1CCC(c2ccccc2)CC(NC(=O)C(S)CCCCN2C(=O)c3ccccc3C2=O)C1=O` (stereo not drawn) [Compound II-1, 2H-Isoindole-2-hexanamide, N-[hexahydro-1-[2-(methylamino)-2-oxo-1-(phenylmethyl)ethyl]-2-oxo-5-phenyl-1H-azepin-3-yl]-1,3-dihydro-α-mercapto-1,3-dioxo-, [3S-(1(R*), 3α, 5α]]-], the inhibitory constant (Ki) in assay [1] is 18 nM; at MMP-3, 39 nM; at MMP-2, 1.2 nM.

On to `CNC(=O)C(Cc1ccccc1)N1CCC(c2ccccc2)CC(NC(=O)C(S)CCCCN2C(=O)c3ccccc3C2=O)C1=O` (stereo not drawn) [Compound III-1, 2H-Isoindole-2-hexanamide, N-[hexahydro-1-[2-(methylamino)-2-oxo-1-(phenylmethyl)ethyl]-2-oxo-5-phenyl-1H-azepin-3-yl]-1,3-dihydro-α-mercapto-1,3-dioxo-, [3S-[1(R*), 3α, 5β]]-], for which the Ki was found to be 53 nM in assay [1] and 73 nM at MMP-3.
